Results published in patent US6737383B1, “Herbicidal oxadiazolidines” (priority 1999, dated 2004).

Legend:
duck salad = assay: Test B flood test duck salad; assay type: in vivo, Heteranthera limosa
Method in brief: (§1)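 Flood test on plants grown to the 2-leaf stage; treated plants kept in greenhouse twelve to sixteen days, then visually rated against controls on a 0 (no effect) to 10 (complete control) scale.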

smallflower flatsedge = assay: Test B flood test smallflower flatsedge; assay type: in vivo, Cyperus difformis
Method in brief: as §1

crabgrass = assay: Test B pre/postemergence crabgrass; assay type: in vivo, Digitaria sanguinalis
Method in brief: (§2)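 Response is a visual 0-to-10 score relative to untreated plants, where 0 means no effect and 10 means complete control, taken twelve to sixteen days after application. Treatments went onto soil at planting and onto foliage of 1- to 4-leaf plants, using a surfactant-containing non-phytotoxic solvent.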

giant foxtail = assay: Test B pre/postemergence giant foxtail; assay type: in vivo, Setaria faberii
Method in brief: as §2

bamyardgrass = assay: Test B flood test barnyardgrass; assay type: in vivo, Echinochloa crus-galli
Method in brief: as §1

morningglory = assay: Test B pre/postemergence morningglory; assay type: in vivo, Ipomoea hederacea
Method in brief: as §2

corn = assay: Test B pre/postemergence corn; assay type: in vivo, Zea mays
Method in brief: as §2

blackgrass = assay: Test B pre/postemergence blackgrass; assay type: in vivo, Alopecurus myosuroides
Method in brief: as §2

wild oat = assay: Test B pre/postemergence wild oat; assay type: in vivo, Avena fatua
Method in brief: as §2

surinam grass = assay: Test B pre/postemergence surinam grass; assay type: in vivo, Brachiaria decumbens
Method in brief: as §2

rape = assay: Test B pre/postemergence rape; assay type: in vivo, Brassica napus
Method in brief: as §2

velvetleaf = assay: Test B pre/postemergence velvetleaf; assay type: in vivo, Abutilon theophrasti
Method in brief: as §2

wheat = assay: Test B pre/postemergence wheat; assay type: in vivo, Triticum aestivum
Method in brief: as §2

bedstraw = assay: Test B pre/postemergence bedstraw; assay type: in vivo, Galium aparine
Method in brief: as §2

soybean = assay: Test B pre/postemergence soybean; assay type: in vivo, Glycine max
Method in brief: as §2

cocklebur = assay: Test B pre/postemergence cocklebur; assay type: in vivo, Xanthium strumarium
Method in brief: as §2

[1] = Rate 62 g/ha, headed Pre-emergence (flood test species), scale 0 to 10 (0 no effect, 10 complete control)
[2] = Rate 125 g/ha, Pre-emergence, flood test species, scale 0 to 10 where 0 is no effect and 10 is complete control
[3] = Rate 250 g/ha, headed Pre-emergence (flood test species), scale 0 to 10 (0 no effect, 10 complete control)
[4] = Rate 500 g/ha, headed Pre-emergence (flood test species), scale 0 to 10 (0 no effect, 10 complete control)
[5] = Postemergence, Rate 62 g/ha, scale 0 to 10, 0 is no effect, 10 is complete control
[6] = Postemergence, Rate 250 g/ha, scale 0 to 10, 0 no effect, 10 complete control
[7] = Preemergence, Rate 62 g/ha, scale 0 to 10 (0 no effect, 10 complete control)
[8] = Preemergence, Rate 125 g/ha, scale 0 to 10 (0 no effect, 10 complete control)
[9] = Preemergence, Rate 250 g/ha, scale of 0 to 10 where 0 is no effect and 10 is complete control
[10] = Preemergence, Rate 500 g/ha, scale 0 (no effect) to 10 (complete control)
[11] = Rate 125 g/ha, Postemergence, scale 0 to 10, 0 no effect, 10 complete control
[12] = Rate 500 g/ha, Postemergence, scale 0 to 10, 0 no effect, 10 complete control

Cc1ccccc1-n1c(=O)on(C(=O)N(Cc2ccccc2)C(C)C)c1=O [Compound 72]
Ducksalad plant response rating (duck salad; [1]): 0
Ducksalad plant response rating (duck salad; [2]): 0
Ducksalad plant response rating (duck salad; [3]): 0
Plant response rating, Ducksalad (duck salad; [4]): 0
S. Flatsedge plant response rating (smallflower flatsedge; [1]): 0
S. Flatsedge plant response rating (smallflower flatsedge; [2]): 0
S. Flatsedge plant response rating (smallflower flatsedge; [3]): 0
Plant response rating, S. Flatsedge (smallflower flatsedge; [4]): 0
Crabgrass plant response rating (crabgrass; [5]): 0
Crabgrass plant response rating (crabgrass; [6]): 0
Crabgrass plant response rating (crabgrass; [7]): 0
Plant response rating, Crabgrass (crabgrass; [8]): 0
Plant response rating, Crabgrass (crabgrass; [9]): 0
Crabgrass plant response rating (crabgrass; [10]): 4
Crabgrass plant response rating (crabgrass; [11]): 0
Crabgrass plant response rating (crabgrass; [12]): 0
Giant foxtail plant response rating (giant foxtail; [5]): 0
Giant foxtail plant response rating (giant foxtail; [6]): 0
Giant foxtail plant response rating (giant foxtail; [7]): 0
Plant response rating, Giant foxtail (giant foxtail; [8]): 0
Plant response rating, Giant foxtail (giant foxtail; [9]): 2
Giant foxtail plant response rating (giant foxtail; [10]): 2
Giant foxtail plant response rating (giant foxtail; [11]): 0
Giant foxtail plant response rating (giant foxtail; [12]): 0
Barnyardgrass plant response rating (bamyardgrass; [1]): 0
Barnyardgrass plant response rating (bamyardgrass; [2]): 0
Barnyardgrass plant response rating (bamyardgrass; [3]): 0
Plant response rating, Barnyardgrass (bamyardgrass; [4]): 0
Morningglory plant response rating (morningglory; [5]): 0
Morningglory plant response rating (morningglory; [6]): 0
Morningglory plant response rating (morningglory; [7]): 0
Plant response rating, Morningglory (morningglory; [8]): 0
Plant response rating, Morningglory (morningglory; [9]): 0
Morningglory plant response rating (morningglory; [10]): 0
Morningglory plant response rating (morningglory; [11]): 0
Morningglory plant response rating (morningglory; [12]): 0
Corn plant response rating (corn; [5]): 0
Corn plant response rating (corn; [6]): 0
Corn plant response rating (corn; [7]): 0
Plant response rating, Corn (corn; [8]): 0
Plant response rating, Corn (corn; [9]): 0
Corn plant response rating (corn; [10]): 0
Corn plant response rating (corn; [11]): 0
Corn plant response rating (corn; [12]): 0
Blackgrass plant response rating (blackgrass; [5]): 0
Blackgrass plant response rating (blackgrass; [6]): 0
Blackgrass plant response rating (blackgrass; [7]): 0
Plant response rating, Blackgrass (blackgrass; [8]): 0
Plant response rating, Blackgrass (blackgrass; [9]): 0
Blackgrass plant response rating (blackgrass; [10]): 0
Blackgrass plant response rating (blackgrass; [11]): 0
Blackgrass plant response rating (blackgrass; [12]): 0
Wild oats plant response rating (wild oat; [5]): 0
Wild oats plant response rating (wild oat; [6]): 0
Wild oats plant response rating (wild oat; [7]): 0
Plant response rating, Wild oats (wild oat; [8]): 0
Plant response rating, Wild oats (wild oat; [9]): 0
Wild oats plant response rating (wild oat; [10]): 0
Wild oats plant response rating (wild oat; [11]): 0
Wild oats plant response rating (wild oat; [12]): 0
B. signalgrass plant response rating (surinam grass; [5]): 0
B. signalgrass plant response rating (surinam grass; [6]): 0
B. signalgrass plant response rating (surinam grass; [7]): 0
Plant response rating, B. signalgrass (surinam grass; [8]): 0
Plant response rating, B. signalgrass (surinam grass; [9]): 0
B. signalgrass plant response rating (surinam grass; [10]): 0
B. signalgrass plant response rating (surinam grass; [11]): 0
B. signalgrass plant response rating (surinam grass; Rate 500 g/ha, Postemergence, scale of 0 to 10 where 0 is no effect and 10 is complete control): 0
Rape plant response rating (rape; [5]): 0
Rape plant response rating (rape; [6]): 0
Rape plant response rating (rape; [7]): 0
Plant response rating, Rape (rape; [8]): 0
Plant response rating, Rape (rape; [9]): 0
Rape plant response rating (rape; [10]): 0
Rape plant response rating (rape; [11]): 0
Rape plant response rating (rape; [12]): 0
Velvetleaf plant response rating (velvetleaf; [5]): 0
Velvetleaf plant response rating (velvetleaf; [6]): 0
Velvetleaf plant response rating (velvetleaf; [7]): 0
Plant response rating, Velvetleaf (velvetleaf; [8]): 0
Plant response rating, Velvetleaf (velvetleaf; [9]): 0
Velvetleaf plant response rating (velvetleaf; [10]): 0
Velvetleaf plant response rating (velvetleaf; [11]): 0
Velvetleaf plant response rating (velvetleaf; [12]): 0
Wheat plant response rating (wheat; [5]): 0
Wheat plant response rating (wheat; [6]): 0
Wheat plant response rating (wheat; [7]): 0
Plant response rating, Wheat (wheat; [8]): 0
Plant response rating, Wheat (wheat; [9]): 0
Wheat plant response rating (wheat; [10]): 0
Wheat plant response rating (wheat; [11]): 0
Wheat plant response rating (wheat; [12]): 0
Bedstraw plant response rating (bedstraw; [5]): 0
Bedstraw plant response rating (bedstraw; [6]): 0
Bedstraw plant response rating (bedstraw; [7]): 0
Plant response rating, Bedstraw (bedstraw; [8]): 0
Plant response rating, Bedstraw (bedstraw; [9]): 0
Bedstraw plant response rating (bedstraw; [10]): 0
Bedstraw plant response rating (bedstraw; [11]): 0
Bedstraw plant response rating (bedstraw; [12]): 0
Soybean plant response rating (soybean; [5]): 0
Soybean plant response rating (soybean; [6]): 0
Soybean plant response rating (soybean; [7]): 0
Plant response rating, Soybean (soybean; [8]): 0
Plant response rating, Soybean (soybean; [9]): 0
Soybean plant response rating (soybean; [10]): 0
Soybean plant response rating (soybean; [11]): 0
Soybean plant response rating (soybean; [12]): 0
Cocklebur plant response rating (cocklebur; [5]): 0
Cocklebur plant response rating (cocklebur; [6]): 0
Cocklebur plant response rating (cocklebur; [7]): 0
Plant response rating, Cocklebur (cocklebur; [8]): 0
Plant response rating, Cocklebur (cocklebur; [9]): 0
Cocklebur plant response rating (cocklebur; [10]): 0
Cocklebur plant response rating (cocklebur; [11]): 0
Cocklebur plant response rating (cocklebur; [12]): 0
